Experimental data as given in ChEMBL document CHEMBL3867487, “Discovery of 2'-α-C-Methyl-2'-β-C-fluorouridine Phosphoramidate Prodrugs as Inhibitors of Hepatitis C Virus” (ACS Med Chem Lett, 2016).

Test system: not listed separately
Experiment: Cytotoxicity against human Huh7.5.1 cells after 48 hrs by luciferase reporter gene assay
Assay type: toxicity, cell-based, Huh-7
Details: not given

SMILES | CC50 at 48 h
CC(C)OC(=O)CNP(=O)(OC[C@H]1O[C@@H](n2ccc(=O)[nH]c2=O)[C@@](C)(F)[C@@H]1O)Oc1ccccc1 (some centres undefined) | > 100 µM
CSCC[C@H](NP(=O)(OC[C@H]1O[C@@H](n2ccc(=O)[nH]c2=O)[C@@](C)(F)[C@@H]1O)Oc1ccccc1)C(=O)OC(C)C (some centres undefined) | > 100 µM
CCCCOC(=O)[C@H](C)NP(=O)(OC[C@H]1O[C@@H](n2ccc(=O)[nH]c2=O)[C@@](C)(F)[C@@H]1O)Oc1ccccc1 (some centres undefined) | > 100 µM
C[C@]1(F)[C@H](O)[C@@H](CO)O[C@H]1n1ccc(=O)[nH]c1=O | > 100 µM
CCOC(=O)[C@H](C)NP(=O)(OC[C@H]1O[C@@H](n2ccc(=O)[nH]c2=O)[C@@](C)(F)[C@@H]1O)Oc1ccccc1 (some centres undefined) | > 100 µM
CCCCCCOC(=O)[C@H](C)NP(=O)(OC[C@H]1O[C@@H](n2ccc(=O)[nH]c2=O)[C@@](C)(F)[C@@H]1O)Oc1ccccc1 (some centres undefined) | > 100 µM
COC(=O)[C@H](C)NP(=O)(OC[C@H]1O[C@@H](n2ccc(=O)[nH]c2=O)[C@@](C)(F)[C@@H]1O)Oc1ccccc1 (some centres undefined) | > 100 µM
CC(C)OC(=O)[C@@H](NP(=O)(OC[C@H]1O[C@@H](n2ccc(=O)[nH]c2=O)[C@@](C)(F)[C@@H]1O)Oc1ccccc1)C(C)C (some centres undefined) | > 100 µM
CC(C)OC(=O)[C@H](C)NP(=O)(OC[C@H]1O[C@@H](n2ccc(=O)[nH]c2=O)[C@@](C)(F)[C@@H]1O)Oc1ccccc1 (some centres undefined) | > 100 µM
C[C@H](NP(=O)(OC[C@H]1O[C@@H](n2ccc(=O)[nH]c2=O)[C@@](C)(F)[C@@H]1O)Oc1ccccc1)C(=O)OCc1ccccc1 (some centres undefined) | > 100 µM
CC(C)OC(=O)[C@@H](Cc1ccccc1)NP(=O)(OC[C@H]1O[C@@H](n2ccc(=O)[nH]c2=O)[C@@](C)(F)[C@@H]1O)Oc1ccccc1 (some centres undefined) | > 100 µM
CC(C)OC(=O)[C@@H](Cc1c[nH]c2ccccc12)NP(=O)(OC[C@H]1O[C@@H](n2ccc(=O)[nH]c2=O)[C@@](C)(F)[C@@H]1O)Oc1ccccc1 (some centres undefined) | > 100 µM
CCCOC(=O)[C@H](C)NP(=O)(OC[C@H]1O[C@@H](n2ccc(=O)[nH]c2=O)[C@@](C)(F)[C@@H]1O)Oc1ccccc1 (some centres undefined) | > 100 µM
CCCCCOC(=O)[C@H](C)NP(=O)(OC[C@H]1O[C@@H](n2ccc(=O)[nH]c2=O)[C@@](C)(F)[C@@H]1O)Oc1ccccc1 (some centres undefined) | > 100 µM
CSCC[C@@H](NP(=O)(OC[C@H]1O[C@@H](n2ccc(=O)[nH]c2=O)[C@@](C)(F)[C@@H]1O)Oc1ccccc1)C(=O)OC(C)C (some centres undefined) | > 100 µM
C[C@H](NP(=O)(OC[C@H]1O[C@@H](n2ccc(=O)[nH]c2=O)[C@@](C)(F)[C@@H]1O)Oc1ccccc1)C(=O)OC1CCCCC1 (some centres undefined) | > 100 µM
CC(C)OC(=O)[C@H](Cc1c[nH]c2ccccc12)NP(=O)(OC[C@H]1O[C@@H](n2ccc(=O)[nH]c2=O)[C@@](C)(F)[C@@H]1O)Oc1ccccc1 (some centres undefined) | > 100 µM
CC(C)OC(=O)[C@H](Cc1ccccc1)NP(=O)(OC[C@H]1O[C@@H](n2ccc(=O)[nH]c2=O)[C@@](C)(F)[C@@H]1O)Oc1ccccc1 (some centres undefined) | > 100 µM
CC(C)OC(=O)[C@H](C)N[P@](=O)(OC[C@H]1O[C@@H](n2ccc(=O)[nH]c2=O)[C@](C)(F)[C@@H]1O)Oc1ccccc1 [SOFOSBUVIR] | > 100 µM
CC(C)OC(=O)[C@@H](C)NP(=O)(OC[C@H]1O[C@@H](n2ccc(=O)[nH]c2=O)[C@@](C)(F)[C@@H]1O)Oc1ccccc1 (some centres undefined) | > 100 µM
CC(C)OC(=O)[C@H](NP(=O)(OC[C@H]1O[C@@H](n2ccc(=O)[nH]c2=O)[C@@](C)(F)[C@@H]1O)Oc1ccccc1)C(C)C (some centres undefined) | > 100 µM

Test system: Hepatitis C virus
Experiment: Antiviral activity against HCV infected in human Huh7 cells assessed as reduction in viral RNA replication after 4 days
Assay type: functional, cell-based, Hepacivirus hominis
Details: Huh-7, 96 h

SMILES | EC50 | EC90
C[C@@]1(F)[C@H](O)[C@@H](CO)O[C@H]1n1ccc(N)nc1=O | 4.5 µM | 
CC(C)OC(=O)[C@H](C)N[P@](=O)(OC[C@H]1O[C@@H](n2ccc(=O)[nH]c2=O)[C@](C)(F)[C@@H]1O)Oc1ccccc1 [SOFOSBUVIR] |  | 0.42 µM

Test system: Hepatitis C virus
Experiment: Antiviral activity against HCV JFH-1 infected in human HuH7.5.1 cells after 48 hrs by luciferase reporter gene assay
Assay type: functional, cell-based, Hepacivirus hominis
Details: genotype 2a JFH-1, Huh-7, 48 h

SMILES | EC50
CC(C)OC(=O)CNP(=O)(OC[C@H]1O[C@@H](n2ccc(=O)[nH]c2=O)[C@@](C)(F)[C@@H]1O)Oc1ccccc1 (some centres undefined) | 22.9 µM
CSCC[C@H](NP(=O)(OC[C@H]1O[C@@H](n2ccc(=O)[nH]c2=O)[C@@](C)(F)[C@@H]1O)Oc1ccccc1)C(=O)OC(C)C (some centres undefined) | 2.24 µM
CCCCOC(=O)[C@H](C)NP(=O)(OC[C@H]1O[C@@H](n2ccc(=O)[nH]c2=O)[C@@](C)(F)[C@@H]1O)Oc1ccccc1 (some centres undefined) | > 50 µM
C[C@]1(F)[C@H](O)[C@@H](CO)O[C@H]1n1ccc(=O)[nH]c1=O | 14.7 µM
CCOC(=O)[C@H](C)NP(=O)(OC[C@H]1O[C@@H](n2ccc(=O)[nH]c2=O)[C@@](C)(F)[C@@H]1O)Oc1ccccc1 (some centres undefined) | > 50 µM
CCCCCCOC(=O)[C@H](C)NP(=O)(OC[C@H]1O[C@@H](n2ccc(=O)[nH]c2=O)[C@@](C)(F)[C@@H]1O)Oc1ccccc1 (some centres undefined) | > 50 µM
COC(=O)[C@H](C)NP(=O)(OC[C@H]1O[C@@H](n2ccc(=O)[nH]c2=O)[C@@](C)(F)[C@@H]1O)Oc1ccccc1 (some centres undefined) | > 50 µM
CC(C)OC(=O)[C@@H](NP(=O)(OC[C@H]1O[C@@H](n2ccc(=O)[nH]c2=O)[C@@](C)(F)[C@@H]1O)Oc1ccccc1)C(C)C (some centres undefined) | > 50 µM
CC(C)OC(=O)[C@H](C)NP(=O)(OC[C@H]1O[C@@H](n2ccc(=O)[nH]c2=O)[C@@](C)(F)[C@@H]1O)Oc1ccccc1 (some centres undefined) | 34.2 µM
C[C@H](NP(=O)(OC[C@H]1O[C@@H](n2ccc(=O)[nH]c2=O)[C@@](C)(F)[C@@H]1O)Oc1ccccc1)C(=O)OCc1ccccc1 (some centres undefined) | > 50 µM
CC(C)OC(=O)[C@@H](Cc1ccccc1)NP(=O)(OC[C@H]1O[C@@H](n2ccc(=O)[nH]c2=O)[C@@](C)(F)[C@@H]1O)Oc1ccccc1 (some centres undefined) | 35.3 µM
CC(C)OC(=O)[C@@H](Cc1c[nH]c2ccccc12)NP(=O)(OC[C@H]1O[C@@H](n2ccc(=O)[nH]c2=O)[C@@](C)(F)[C@@H]1O)Oc1ccccc1 (some centres undefined) | 0.88 µM
CCCOC(=O)[C@H](C)NP(=O)(OC[C@H]1O[C@@H](n2ccc(=O)[nH]c2=O)[C@@](C)(F)[C@@H]1O)Oc1ccccc1 (some centres undefined) | > 50 µM
CCCCCOC(=O)[C@H](C)NP(=O)(OC[C@H]1O[C@@H](n2ccc(=O)[nH]c2=O)[C@@](C)(F)[C@@H]1O)Oc1ccccc1 (some centres undefined) | > 50 µM
CSCC[C@@H](NP(=O)(OC[C@H]1O[C@@H](n2ccc(=O)[nH]c2=O)[C@@](C)(F)[C@@H]1O)Oc1ccccc1)C(=O)OC(C)C (some centres undefined) | > 50 µM
C[C@H](NP(=O)(OC[C@H]1O[C@@H](n2ccc(=O)[nH]c2=O)[C@@](C)(F)[C@@H]1O)Oc1ccccc1)C(=O)OC1CCCCC1 (some centres undefined) | > 50 µM
CC(C)OC(=O)[C@H](Cc1c[nH]c2ccccc12)NP(=O)(OC[C@H]1O[C@@H](n2ccc(=O)[nH]c2=O)[C@@](C)(F)[C@@H]1O)Oc1ccccc1 (some centres undefined) | > 50 µM
CC(C)OC(=O)[C@H](Cc1ccccc1)NP(=O)(OC[C@H]1O[C@@H](n2ccc(=O)[nH]c2=O)[C@@](C)(F)[C@@H]1O)Oc1ccccc1 (some centres undefined) | 33.3 µM
CC(C)OC(=O)[C@H](C)N[P@](=O)(OC[C@H]1O[C@@H](n2ccc(=O)[nH]c2=O)[C@](C)(F)[C@@H]1O)Oc1ccccc1 [SOFOSBUVIR] | 0.12 µM
CC(C)OC(=O)[C@@H](C)NP(=O)(OC[C@H]1O[C@@H](n2ccc(=O)[nH]c2=O)[C@@](C)(F)[C@@H]1O)Oc1ccccc1 (some centres undefined) | 34.3 µM
CC(C)OC(=O)[C@H](NP(=O)(OC[C@H]1O[C@@H](n2ccc(=O)[nH]c2=O)[C@@](C)(F)[C@@H]1O)Oc1ccccc1)C(C)C (some centres undefined) | 1.82 µM
